Measurements reported in patent US20210332014A1, “CABOZANTINIB MALATE CRYSTAL FORM, PREPARATION METHOD AND USE THEREOF” (Crystal Pharmaceutical (Suzhou) Co., Ltd., priority 2018, published 2021).

Key:
Assay type in all cases: physicochemical
[1] = Kinetic solubility study (saturated solutions, HPLC); conditions: for Solubility in H2O / Solubility in FaSSIF / Solubility in FeSSIF: 20 mg in 1.5 mL
Protocol: The HPLC method parameters for solubility test in the present disclosure are as follows: • 1. Column: Waters XBridge C18 150×4.6mm, 5 μm • 2. Mobile Phase: A: 0.1% TFA in H2O • B: 0.1% TFA in Acetonitrile • Gradient:
• 3. Flow rate: 1 mL/min • 4. Injection Volume: 5 μL • 5. Detection wavelength: 250 nm • 6. Column Temperature: 40° C. • 7. Diluent: Acetonitrile/H2O (9:1, v/v)
• Simulated gastrointestinal fluids such as FaSSIF (Fasted state simulated intestinal fluids) and FeSSIF (Fed state simulated intestinal fluids) are biorelevant media. […] After equilibrated for 1 h and 4 h, concentrations (mg/mL) of the saturated solutions were measured by HPLC.
• 20 mg of Form CSIII and 20 mg of crystalline forms in the prior arts were suspended into 1.5 mL of SGF, 1.5 mL of FaSSIF, 1.5 mL of FeSSIF and 1.5 mL of water to get saturated solutions. After equilibrated for 1 h and 4 h, concentrations (mg/mL) of the saturated solutions were measured by HPLC.

[2] = Flowability (compressibility index / Carr index); conditions: for Compressibility index: c=(ρf−ρ0)/ρf
Protocol: Compressibility index test method is as follows: a certain amount of powder was added into a measuring cylinder and bulk volume was recorded. Then the powder was tapped to make it in the tightest state and the tapped volume was recorded. The bulk density (ρ0), tapped density (ρf) were calculated and compressibility index was calculated according to c=(ρf−ρ0)/ρf. • Criteria of flowability according to United States Pharmacopoeia USP1174, which is shown in Table 7.

[3] = Adhesiveness (material sticking to the punch); conditions: for Average amount sticking to the punch / Maximum amount sticking to the punch: 30 mg, φ8 mm round tooling, 10 KN held 30 s
Protocol: • 30 mg of Form CSIII and crystalline forms in the prior art were weighed separately and then added into the dies of φ8 mm round tooling, compressed at 10 KN and held for 30 s. The punch was weighed and amount of material sticking to the punch was calculated. The compression was repeated twice and the cumulative amount, maximum amount and average amount of material sticking to the punch during the compression were recorded.

[4] = Compressibility (tensile strength of manually compressed tablet); conditions: for Average tensile strength: 80 mg, φ6 mm round tooling, 10 KN, average of three tests
Protocol: • Manual tablet press was used for compression. 80 mg of Form CSIII and crystalline forms in the prior art were weighed and added into the dies of a φ6 mm round tooling, respectively, compressed at 10 KN manually, then stored at room temperature for 24 h until complete elastic recovery. Hardness (H) was tested with an intelligent tablet hardness tester. Diameter (D) and thickness (L) were tested with caliper. Tensile strength of the powder was calculated with the following formula: T=2H/πDL.

[5] = Dynamic Vapor Sorption (DVS); conditions: humidity lower than 30% RH, 25° C.
Protocol: Dynamic Vapor Sorption (DVS) is measured via an SMS (Surface Measurement Systems Ltd.) intrinsic DVS instrument. […] Typical Parameters for DVS test are as follows: • Temperature: 25° C. • Gas and flow rate: N2, 200 mL/min • dm/dt=0.002 • RH range: 0% RH to 95% RH

[6] = Particle size distribution (laser particle size analyzer); conditions: wet mode, Isopar G
Protocol: The particle size distribution data in the present disclosure were acquired by an [MUT] laser particle size analyzer of Microtrac. Microtrac [MUT] is equipped with an SDC (Sample Delivery Controller). The test is carried out in wet mode, and the dispersion medium is Isopar G. The parameters are as follows:

For COc1cc2nccc(Oc3ccc(NC(=O)C4(C(=O)Nc5ccc(F)cc5)CC4)cc3)c2cc1OC.O=C(O)C[C@H](O)C(=O)O [Form CSI, N-(4-(6,7-dimethoxyquinolin-4-yloxy)phenyl)-N′-(4-fluorophenyl) cyclopropane-1,1-dicarboxamide (S)-malate], the “Solubility compared with prior art” value [1] was “higher than that of prior art”, the “Solubility in water relative to Form M4” value ([1]; water) was “over five times more” and the “Solubility in water relative to Form N-2” value ([1]; water) was “twice”. The “Solubility in H2O” value ([1]; water, equilibrated 1 h) was 350 µg/mL and the “Solubility in H2O” value ([1]; water, equilibrated 4 h) was 360 µg/mL.
In the case of COc1cc2nccc(Oc3ccc(NC(=O)C4(C(=O)Nc5ccc(F)cc5)CC4)cc3)c2cc1OC.O=C(O)C[C@H](O)C(=O)O [Form CSIII, N-(4-(6,7-dimethoxyquinolin-4-yloxy)phenyl)-N′-(4-fluorophenyl) cyclopropane-1,1-dicarboxamide (S)-malate], the Bulk density [2] is reported as 0.319 g/mL, the “Flowability compared with prior art” value [2] is reported as “remarkably superior to that of prior art” and the Tapped density [2] is reported as 0.376 g/mL. The Compressibility index [2] was 15%, the “Adhesiveness compared with prior art form” value [3] was “superior to the prior art form” and the “Maximum amount sticking to the punch of the prior art relative to Form CSIII” value [3] was “over twice”. The “Average amount sticking to the punch” value [3] was 0.045 mg, the “Maximum amount sticking to the punch” value [3] was 0.06 mg and the “Compressibility compared with prior art” value [4] was “better compressibility”. The Average tensile strength [4] was 1.56 MPa, the “Solubility compared with prior art” value [1] was “higher than that of prior art” and the “Solubility in FaSSIF” value ([1]; equilibrated 1 h) was 25 µg/mL. The “Solubility in FaSSIF” value ([1]; equilibrated 4 h) was 8.3 µg/mL, the “Solubility relative to Form N-2 and Form M4” value ([1]; FeSSIF and water) was “twice” and the “Solubility in FeSSIF” value ([1]; equilibrated 1 h) was 130 µg/mL. The “Solubility in FeSSIF” value ([1]; equilibrated 4 h) was 120 µg/mL, the “Solubility in H2O” value ([1]; water, equilibrated 1 h) was 300 µg/mL and the “Solubility in H2O” value ([1]; water, equilibrated 4 h) was 240 µg/mL.
For COc1cc2nccc(Oc3ccc(NC(=O)C4(C(=O)Nc5ccc(F)cc5)CC4)cc3)c2cc1OC.O=C(O)C[C@H](O)C(=O)O [Form M2, N-(4-(6,7-dimethoxyquinolin-4-yloxy)phenyl)-N′-(4-fluorophenyl) cyclopropane-1,1-dicarboxamide (S)-malate], the “Behaviour under humidity (DVS)” value [5] was “dehydrated rapidly” and the D90 particle size [6] was 244.3 μm.
Work on COc1cc2nccc(Oc3ccc(NC(=O)C4(C(=O)Nc5ccc(F)cc5)CC4)cc3)c2cc1OC.O=C(O)C[C@H](O)C(=O)O [Form M4, N-(4-(6,7-dimethoxyquinolin-4-yloxy)phenyl)-N′-(4-fluorophenyl) cyclopropane-1,1-dicarboxamide (S)-malate] yielded a Bulk density [2] of 0.251 g/mL, a Tapped density [2] of 0.387 g/mL and a Compressibility index [2] of 35%. The “Average amount sticking to the punch” value [3] was 0.08 mg, the “Maximum amount sticking to the punch” value [3] was 0.11 mg and the Average tensile strength [4] was 1.23 MPa. For the same compound, the “Solubility in FaSSIF” value ([1]; equilibrated 1 h) was 12 µg/mL, the “Solubility in FaSSIF” value ([1]; equilibrated 4 h) was 1.9 µg/mL and the “Solubility in FeSSIF” value ([1]; equilibrated 1 h) was 62 µg/mL. The “Solubility in FeSSIF” value ([1]; equilibrated 4 h) was 65 µg/mL, the “Solubility in H2O” value ([1]; water, equilibrated 1 h) was 72 µg/mL and the “Solubility in H2O” value ([1]; water, equilibrated 4 h) was 2.8 µg/mL.
In the case of COc1cc2nccc(Oc3ccc(NC(=O)C4(C(=O)Nc5ccc(F)cc5)CC4)cc3)c2cc1OC.O=C(O)C[C@H](O)C(=O)O [Form N-2, N-(4-(6,7-dimethoxyquinolin-4-yloxy)phenyl)-N′-(4-fluorophenyl) cyclopropane-1,1-dicarboxamide (S)-malate], the Bulk density [2] is reported as 0.194 g/mL, the Tapped density [2] is reported as 0.256 g/mL and the Compressibility index [2] is reported as 24%. The “Average amount sticking to the punch” value [3] was 0.20 mg, the “Maximum amount sticking to the punch” value [3] was 0.26 mg and the Average tensile strength [4] was 1.02 MPa. For the same compound, the “Solubility in FaSSIF” value ([1]; equilibrated 1 h) was 11 µg/mL, the “Solubility in FaSSIF” value ([1]; equilibrated 4 h) was 7.9 µg/mL and the “Solubility in FeSSIF” value ([1]; equilibrated 1 h) was 47 µg/mL. The “Solubility in FeSSIF” value ([1]; equilibrated 4 h) was 43 µg/mL, the “Solubility in H2O” value ([1]; water, equilibrated 1 h) was 150 µg/mL and the “Solubility in H2O” value ([1]; water, equilibrated 4 h) was 150 µg/mL.
